Data: patent US20160151403A1, “SMALL MOLECULE MODULATORS OF P53 FAMILY SIGNALING” (The Trustees of the University of Pennsylvania, priority 2006, published 2016)
“Also recorded” adds a separate entry of the source.

Key:
[1] = system: DR5 and p21 in HCT116/p53(+/+) cells; assay: Western blot of p53 target genes DR5 and p21 in HCT116/p53(+/+) cells; assay type: cell-based, human; settings: for expression of p53 targets DR5 and p21 proteins: parental HCT116 (p53+/+) cells, FIG. 2A
Procedure: (§1) FIGS. 2A-2B show protein levels of p53 target genes p21 and DR5 were induced by selected compounds in HCT/p53(+/+) cells (A) or HCT/p53(−/−) cells (B). In A, doses of compounds (μM) are listed above each lane. Cells treated with compounds were harvested and lysed for SDS-PAGE and immunoblotted with p21 or DR5 antibodies. Ran was used as a protein loading control. Doses of compounds in B were as follows: 2 μM for #15, 12 μM for #1 and #23, 20 μM for #20 and #32, 100 μM for #33, 200 μM for #5, #8, #12, #16, #17, and #22, and 400 μM for #3. The dose for adriamycin was 0.2 μg/ml. Cells were incubated for 16 hours at 37° C. with the various drugs prior to cell harvest;
(§2) Cells were collected and protein concentration was quantified by the Bio-Rad protein assay prior to SDS-PAGE. Proteins were transferred to a PVDF membrane (Immobilon-P, Millipore Corporation, Bedford, Mass.) by a semi-dry transfer apparatus (Bio-Rad Laboratories, Hercules, Calif.). The membranes with transferred proteins were blotted with 10% W/V non-fat dry milk and then incubated with the primary antibody and subsequently secondary antibodies, which were labelled by horseradish peroxidase, or infrared dyes (IR). Signals were visualized by either ECL (Amersham Pharmacia Biotech, England, UK) and exposed to an X-ray film, or scanned by the Odyssey Infared Imaging System (LI-COR Biosciences, Lincoln, Nebr.). Anti-p53, DO-1, was from Santa Cruz biotechnology, Inc. (Santa Cruz, Calif.), anti-p73 (AB-1) and anti-p21 (AB-1) were obtained from Calbiochem (San Diego, Calif.). Anti-ser20 of p53 Cell were obtained from Signaling Technology (Danvers, Mass.) and anti-DR5 antibody was obtained from Cayman Chemical (Ann Arbor, Mich.).
(§3) The chemical library screening was directed at restoring “p53 responses” in p53-deficient cells. The small molecules identified by the cell-based screening procedure appeared to be able to restore p53 responses in p53-deficient colon tumors and to eliminate viable cells. Their function was further tested on wild-type p53-expressing and p53-knockout HCT116 colon adenocarcinoma cell lines. A number of candidate modulators of signaling by the p53 family appeared to induce expression of p53 target genes such as p21 or DR5(13) either with or without stabilizing p53 protein in HCT116 cells (FIG. 2A).

[2] = system: p53 protein expression in HCT116 cells; assay: Western blot of p53 protein in parental HCT116 cells; assay type: cell-based, human; settings: FIG. 2A
Procedure: as §2, §3

[3] = system: DR5 and p21 in HCT116/p53(−/−) cells; assay: Western blot of p53 target genes DR5 and p21 in HCT116/p53(-/-) cells; assay type: cell-based, human; settings: for DR5 and p21 expression (p53 target genes): p53-null HCT116 cells, 16 hours, doses per compound in FIG. 2B
Procedure: as §1, §2
A number of selected compounds was further tested on HCT116/p53^−/− cells to verify the possibility of induction of p53 target gene expression in the absence of p53. […] The importance of this observation is in establishing that it is possible to identify small molecules with the potential to induce p53 target gene expression in p53-deficient cells.

[4] = system: p73 in HCT116/p53(−/−) cells; assay: Western blot of p73 protein in HCT116/p53(-/-) cells; assay type: cell-based, human; settings: FIG. 3F
Procedure: (§4) FIGS. 3A-3F show: Structures (A) of isolated compounds and summary of their effects on the p53 family and transcriptional targets (B). Cell cycle profiles of HCT/p53(+/+) and HCT/p53(−/−) in response to treatment by selected compounds (C-E). The dose of #17 was 200 μM and for #23 it was 10 μM. F, p73 protein levels were elevated in HCT116/p53(−/−) cells in response to treatment by selected compounds at various concentrations as indicated;
as §2
The questioned whether the p53 family member p73 is involved in the p53-responsive transcriptional activity induced by the compounds identified was then tested. p63, the other p53 family member, was not tested, because the TA form of p63 is rarely expressed in malignant and normal tissues except for germ cells of the ovary and testis.

[5] = Toxicity in xenograft-bearing mice; assay type: in vivo; settings: at higher doses (above MTD)
Procedure: (§5) Compounds #1, #14, #17, and #23 were tested in colon-tumor xenograft-bearing mice in order to evaluate their toxicities and potential anti-tumor effects (FIG. 4). […] The initial doses were chosen below maximal tolerated doses based on the NCI DTP toxicology databases for chemical compound testing in vivo so that mice would survive drug administration and allow subsequent evaluation of anti-tumor effects. p53-null HCT116 xenografts were first tested to document anti-tumor effects in p53-deficient tumors and an experiment to simulate therapy of established tumors was designed. A total of 2×10^6 p53-null HCT116 cells were implanted on opposite flanks subcutaneously in each of 6 nude mice in each group. When tumor masses grew to about 3-5 mm in diameter, drugs were administered intra-peritoneally (#1: 100 mg/kg; #14: 50 mg/kg; #23: 10 mg/kg), and on the next day additional groups received intravenous TRAIL (15) (100 μg/mice via the tail vein). Tumor weights were determined at 7 days later. […] Nonetheless in the future it may be possible to modify the structure of #17 or identify doses where synergistic interactions with TRAIL may be observed.

HCT116/p53^−/− cells = assay: Flow cytometry cell cycle profile, HCT116/p53(-/-); assay type: cell-based, human
Procedure: as §4
(§6) Adherent cells in a 6-well plate were trypsinized and collected in 15 ml centrifuge tubes to which were added the originally floating cells. The collected cells were ethanol-fixed and stained with propidium iodide (Sigma, St. Louis, Mo.). The DNA content of the stained cells was then measured using an Epics Elite flow cytometer (Beckman-Coulter, Fullerton, Calif.).
(§7) The ability of selected compounds from the chemical library screen to induce apoptosis of human colon tumor cells and the dependence of their effects on endogenous p53 status was further evaluated.

[6] = system: HCT116/p53(−/−)/PG13 cells; assay: p53 transcriptional activity, PG13 reporter, HCT116/p53(-/-)/PG13 cells; assay type: cell-based, human; settings: p53-null HCT116, 16 h, bioluminescence
Procedure: (§8) Cells were treated by the indicated compounds at progressive 1:2 serial dilutions for 16 h, and the luciferase activities were detected by bioluminescence imaging. Fold induction was calculated by comparing to the nontreated cells;

[7] = system: HCT116/p53(−/−) xenografts; assay: In vivo anti-tumor assay, HCT116/p53(-/-) xenografts in Balb/c nude mice; settings: doses just below the MTD
Procedure: Balb/c nude mice were inoculated subcutaneously with 2 million HCT116/p53(−/−) cells in Matrigel on each flank. 6 mice were used in each group, in each of the two experiments. When the tumor mass reached about 3-5 mm, mice were treated with the compounds alone or following a single dose of TRAIL at 100 μg/mouse in experiment 1. At 7 days after treatment, mice were sacrificed and the tumor masses were weighted. The doses used were 100 mg/kg for #1, 50 mg/kg for #14, and 10 mg/kg for #23;
Balb/c nude mice (Charles River Laboratories, Wilmington, Mass.) were inoculated subcutaneously with 2 million HCT116/p53(−/−) cells in an equal volume of Matrigel. When tumor masses reached about 3-5 mm in diameter, mice were treated with the compounds alone by intraperitoneal injection or following a single intravenous dose of TRAIL at 100 μg/mouse. At 7 days after treatment, mice were sacrificed and the tumor masses were weighed. DLD1/PG13 cells were inoculated subcutaneously with 5 million cells. At 24 hours later mice were treated with selected compounds, and subsequently bioluminescence imaging was carried out after 16 hours as previously described [Wang, W. & El-Deiry, W. S. (2003) Cancer Biol Ther 2, 196-202].
as §5

HCT116/p53^+/+ cells = assay: Flow cytometry cell cycle profile, HCT116/p53(+/+); assay type: cell-based, human; settings: #17 200 μM, #23 10 μM
Procedure: as §4, §6, §7

[8] = system: HCT116/p53(+/+)/PG-13 cells; assay: p53 transcriptional activity, PG13 reporter, HCT116/p53(+/+)/PG-13 cells; assay type: cell-based, human; settings: 16 h, bioluminescence
Procedure: as §8

γH2AX = γH2AX test (DNA damage signaling); assay type: cell-based; settings: after treatment

| SMILES | expression of p53 targets DR5 and p21 proteins [1] | p53 protein expression [2] | DR5 and p21 expression (p53 target genes) [3] | p73 protein expression [4] | further results |
| --- | --- | --- | --- | --- | --- |
| Cc1ccc(CCCC(=O)O)cc1C [#3] | increase p53 target gene expression | slight or no significant effect | – | – | – |
| O=C(O)/C=C\C(=O)Nc1ccc2c(c1)-c1ccccc1C2 [#5] | increase p53 target gene expression | slight or no significant effect | – | – | – |
| O=C(O)CCC(=O)c1ccc2sc3ccccc3c2c1 [#8] | – | – | increase DR5 and p21 expression | induce p73 protein expression | – |
| COC1=C(C)C(=O)c2c(c(COC(N)=O)c3n2CC2C3N2C)C1=O (stereo not shown) [#11] | more modest | increased p53 expression | – | – | – |
| O=C(O)c1ccccc1-c1ccccc1C(=O)Nc1ccc2c(c1)[nH]c(=O)c1ccccc12 [#12] | increase p53 target gene expression | slight or no significant effect | – | induce p73 protein expression | – |
| Cc1c2ccccc2c(CSC(=N)N)c2ccccc12.Cl [#15] | more modest | increased p53 expression; also recorded: significantly increased p53 protein levels | – | – | – |
| CC(C)=CCNc1ncnc2c1c(C#N)cn2C1OC(CO)C(O)C1O (stereo not shown) [#16] | increase p53 target gene expression | slight or no significant effect | – | induce p73 protein expression | – |
| CN(C)CCCn1c2ccccc2c2cnccc21 [#17] | increase p53 target gene expression | slight or no significant effect; also recorded: modestly induced p53 levels | increasing expression of the p53 target genes DR5 and p21; also recorded: strongly induce p53 target gene expression | did not increase p73 expression | toxicity to mice [5]: toxic to mice; DR5 levels ([1]; HCT116/p53^+/+ cells): highest; sub-G1 peak (apoptosis) (HCT116/p53^−/− cells; HCT116/p53^−/−, #17 200 μM, #23 10 μM): induced a sub-G1 peak characteristic of apoptosis; S-phase population on apoptosis induction (HCT116/p53^−/− cells; p53-null HCT116 cells, compared with wild-type p53-expressing HCT116): without suppressing the S-phase population; p53 transcriptional activity (reporter assay response) [6]: highest; also recorded: stronger responses in the reporter assays; anti-tumor effect on established xenograft [7]: no apparent in vivo anti-tumor effect; sub-G1 peak (apoptosis) (HCT116/p53^+/+ cells): induced a sub-G1 peak characteristic of apoptosis; DR5 expression ([3]; HCT116/p53^−/− cells): highest; p53 transcriptional activity [8]: highest; γH2AX (γH2AX): not |
| O=c1[nH]c(SCc2ccccc2[N+](=O)[O-])nc2nc[nH]c12 [#22] | – | – | increase DR5 and p21 expression | – | – |
| C[C@]12CC[C@H](O)C[C@H]1CC[C@@H]1[C@@H]2CC[C@]2(C)[C@@H](C3=CC(=O)OC3)[C@@H](O)C[C@]12O [#32] | – | – | increase DR5 and p21 expression | – | – |
| CC[C@@]1(O)C(=O)OCc2c1cc1n(c2=O)Cc2cc3c(NC(=O)CN)cccc3nc2-1.Cl [#33] | increased expression of DR5 and p21 proteins | increase p53 expression; also recorded: significantly increased p53 protein levels | – | – | – |
| COc1cccc2c1C(=O)c1c(O)c3c(c(O)c1C2=O)C[C@@](O)(C(=O)CO)C[C@@H]3O[C@H]1C[C@H](N)[C@H](O)[C@H](C)O1 [adriamycin, doxorubicin, reference compound] | – | – | – | only increased p73 slightly | DR5 expression ([3]; HCT116/p53^−/− cells): no obvious effect; p21 expression ([3]; HCT116/p53^−/− cells): little effect |
